“Also recorded” adds a separate entry of the source.
Assays:
[1] = system: GFAP expression; test: Traumatic brain injury (TBI) in mice, Western blot analysis for GFAP; type: in vivo; settings: for GFAP expression in brain (Western blot, GFAP/actin): 7 days post-injury, versus untreated TBI
Method: Animals and traumatic brain injury (TBI): TBI was performed with a controlled closed skull injury model as described in […] al. 2012 (J. Neurotrauma 30, 55-66). Following the method described therein, a pneumatic impact device was used to generate a moderate TBI leaving the skull and dura matter intact. To achieve this, C57BL/6 mice were anesthetized with isoflurane (3% induction, 1% maintenance) in 100% oxygen. A body temperature of 37° C. was maintained using a temperature-controlled heated surgical table. A small midline incision was made on the scalp using aseptic surgical techniques. A 5 mm stainless steel disc was positioned on the skull and fixed using superglue on the right parietal bone between bregma and lamda over the somatosensory cortex. The mouse was then positioned on a stage directly under the pneumatic impact tip. […] Scalp incisions were closed using 4-0 nylon braided suture and antibiotic ointment applied to the incision. Mice were placed in a Thermo-Intensive Care Unit (Braintree Scientific model FV-1; 37° C.; 27% 02) and monitored until fully awake and moving freely. […] Western Blot Analysis for GFAP: At selected survival times, mice were anesthetized under isoflurane and sacrificed. The brain was removed and placed on ice for dissection into impacted and non-impacted brain hemispheres. […] The homogenate was transferred to a 2 mL tube and centrifuged at 1000 g for 10 minutes at 4° C. and the supernatant was collected and analyzed. Protein concentration was determined by the BCA assay using a 1:50 dilution. 100 μg of protein was removed as an aliquot for each sample and Laemmli buffer containing β-mercaptoethanol added and the sample placed in a heat block for 3 minutes at 95° C. Samples were loaded on a 12% gel and ran at 80 V for 20 minutes followed by 40 minutes at 130 V. Samples were transferred to nitrocellulose membrane at 100 V for 1 hour. The membrane was blocked with 5% milk in TBS-T for 30 minutes. GFAP (1:1000-Imgenex IMG-5083-A) was added and placed at 4° C. overnight. The membrane was washed with TBS-T three times for 10 minutes. Secondary antibody for GFAP (Donkey anti-rabbit HRP conjugated (ImmunoJackson Laboratories; 711-035-152; 1:20000) was applied at room temperature for 1 hour. The membranes were washed with TBS-T for 15 minutes (3 times) and developed using the Western Lightning Plus-ECL kit (PerkinElmer, Inc.) following manufacturer's directions.

[2] = system: photothrombosis-induced stroke infarctions; test: Photothrombosis-induced stroke in mice, TTC-stained brain infarction size; type: in vivo; settings: for size of the brain infarction (TTC staining): 24 hours after stroke, versus vehicle; for size of brain infarctions in mice pretreated with the A3 receptor antagonist MRS1523: MRS1523 2 mg/kg i.p. at 0 and 2 hours, treatment within 30 minutes of clot formation, 24 hours
Method: Photothrombosis-induced Stroke: Photothrombosis was performed as described in Zheng et al 2010 (PloS One 5 (12): e14401). In brief, Rose Bengal is a fluorescent dye that when injected into the vasculature and excited, generates singlet oxygen that damages the endothelial wall and induces a local thrombosis (clot). Using this technique, mice were given a 0.1 mL tail-vein injection of sterilized Rose Bengal (RB, Sigma, U.S.A.) in artificial cerebral spinal fluid (aCSF). The RB concentration was 20 mg/mL. A cortical region was centered in the imaging field and illuminated with a green laser (543 nm, 5 mW) using a 0.8-NA 40× water-immersion objective (Nikon, Tokyo). The clot formation was monitored in real time until the targeted vessel or downstream capillaries were firmly occluded. Stable clots were subsequently identified by a non-fluorescent vessel segmentation ending with highly fluorescent regions. […] Treatments, MRS4322 (0.16 mg/kg; 0.5 μmol/kg) or MRS2365 (0.24 mg/kg; 0.5 μmol/kg) were introduced via intraperitoneal injections (i.p.). […] Animals and Photothrombosis-induced Stroke: Stroke was performed as described in Zheng et al 2010 (PloS One 5 (12): e14401). Female C57Bl/6 mice (4-6 months) were used in this study. From the methods of this manuscript: Mice were anesthetized at 3% isoflurane with 100% oxygen and subsequently maintained at 1% isoflurane through a nosecone. Depth of anesthesia was monitored and regulated according to vital signs, pinch withdrawal and eye blinks. Body temperature was maintained at 37° C. by a feedback-controlled heating pad (Gaymar T/Pump). Vital signs including oxygen saturation, respiratory rate, and heart rate were continuously monitored by using the MouseOx system (STARR Life Sciences). The hair on each mouse's head was trimmed and a small incision was made in the scalp to expose the skull. A custom-made stainless steel plate was glued to the skull with VetBond Tissue Adhesive (3M, St Paul, MN). A cranial thinned-skull imaging window was created over the right primary somatosensory cortex (˜1.5 mm posterior to Bregma and 2 mm lateral from midline) depending on the experiment. In brief, a large region of the skull was first thinned with the electric drill and then further thinned with a surgical blade. The final thickness of the thinned skull was approximately 50 μm. After the cranial imaging window was created, mice were transferred to microscope stage and used for photothrombosis or imaging experiments. For the repeat imaging experiments, the plate was carefully detached from the skull and the scalp was sutured (Ethicon 6-0 sild suture). After each experiment, the mice were either returned to cages until the next timepoint or sacrificed. All procedures were approved by the Institutional Animal Care and Use Committee (IACUC) at University of Texas Health Science Center at San Antonio. Thirty minutes following stroke or sham (uninjured), mice were treated with either vehicle (saline) or drugs (MRS4322, MRS2365, MRS5698 or Cl-IBMECA). Post photothrombotic infarction evaluation. The size of cerebral infarcts was evaluated using 2,3,5-Triphenyltetrazolium chloride (TTC) staining as described in Zheng et al 2010 (PloS One 5 (12): e14401). In brief, RB-induced lesions in brain slices were stained with TTC. TTC is a colorless dye that stains healthy brain tissue red when reduced by the mitochondrial enzyme succinyl dehydrogenase (Bederson J B et al., 1986). The absence of staining in necrotic tissue is then used to define the area of a brain infarction. Mice were sacrificed by cervical dislocation, their brains removed and then placed in ice cold HBSS for 3 minutes. […] The sections were fixed in 10% buffered formaldehyde solution overnight at 4° C. Slices were imaged on a flatbed scanner (HP scanjet 8300) for analysis of the lesion size at 1200 dpi. Photothrombosis-induced Stroke: Photothrombosis was performed as described in Zheng et al. 2010 (PloS One 5 (12): e14401). […]

[3] = TBI mice, approx. 0.5 μmol/kg 30 min post-TBI
[4] = Example 6: mice, 0.5 μmol/kg i.p. within 30 minutes of clot formation

SMILES	GFAP expression in brain (Western blot, GFAP/actin) [1, 3]	size of the brain infarction (TTC staining) [2, 4]	size of brain infarctions in mice pretreated with the A3 receptor antagonist MRS1523 [2]	GFAP levels in plasma (Western blot, relative to actin) ([1]; TBI mice, approx. 0.5 μmol/kg 30 min post-TBI, day 7, versus untreated TBI)	efficacy in the mouse TBI model ([1]; summary statement)	size of the brain infarction (TTC staining) ([2]; Example 7: mice, 100 ul of 100 uM i.p. within 30 minutes of clot formation)	efficacy in the mouse photothrombotic stroke model ([2]; summary statement)
CSc1nc(N)c2ncn([C@H]3[C@H](O)[C@H](O)[C@]4(COP(=O)(O)OP(=O)(O)O)C[C@H]34)c2n1 [MRS2365]	significantly lower; also recorded: decreased	significantly reduced	not reduced				
CSc1nc(N)c2ncn([C@H]3[C@H](O)[C@H](O)[C@]4(CO)C[C@H]34)c2n1 [MRS4322]	significantly lower; also recorded: decreased	significantly reduced	reversed by MRS1523; also recorded: not reduced	significantly reduced	significant efficacy	significantly reduced	significant efficacy

— patent publication US12390483B2, “Compounds and methods for treating neurological and cardiovascular conditions” (Astrocyte Pharmaceuticals, Inc., priority 2016, dated 2025)
